# Values quoted from earlier work as cited in patent publication US20080187998A1, “Sulfonamide-based oligomers and polymers for destabilization of biological membranes” (UNIVERSITY OF UTAH RESEARCH FOUNDATION, priority 2007, published 2008).
# Details: monomeric sulfonamide
row,pKa,SMILES
1,6.1,"COc1cc(NS(=O)(=O)c2ccc(N)cc2)nc(OC)n1 [SDM, sulfadimethoxine]"
2,5.45,"Cc1nnc(NS(=O)(=O)c2ccc(N)cc2)s1 [SMT, sulfamethizole]"
3,6.4-6.5,"Nc1ccc(S(=O)(=O)Nc2ncccn2)cc1 [SDZ, sulfadiazine]"
4,7.0,Cc1ccnc(NS(=O)(=O)c2ccc(N)cc2)n1 [sulfamerazine]
